Blank lines part the entries; values can stand above or below the compound they belong to.
Experiments:
[1] = target: MMP12 (Homo sapiens, UniProt P39900); conditions: background statement, compound of WO 02/074767; cited from earlier work
[2] = Relative thermodynamic stability in suspension experiments (XRPD on precipitates); assay type: physicochemical
[3] = Humidity sorption by gravimetrical vapour sorption (GVS); assay type: physicochemical
Experimental: The gravimetric responses of test samples to changes in humidity were investigated using either a SGA 100 (VTI Corporation) or a DVS 2 (Surface Measurement System) Gravimetrical Vapour Sorption (GVS) instrument with the following features: Dry to 90% RH and back in steps of, for example, 10% RH.
Equilibrium condition: <0.01 weight-% per 10 minutes (<0.001 weight-%/min)
Approximately 5 mg of the test sample was placed in the cup and evaluated.

[4] = Thermal behaviour on heating (DSC and TGA); assay type: physicochemical; conditions: below 200° C.; neither solvent loss nor any other thermal event prior to melting
Experimental: The calorimetric response of a test sample to increasing temperature was investigated using a Q1000 Modulated Temperature Differential Scanning Calorimeter (MTDSC) (TA Instruments) using different methods, the main features being:
Normally modulated mode (“heat only”) with a ramp rate of 5° C./min (but also 1 and 20° C./min were used without modulation). The temperature range was from just below ambient to above 200° C.
Approximately 2 mg of the test sample was placed in an aluminium cups with a lid (no crimping).
The gravimetric response of test samples to increasing temperatures was investigated using a Q500 Thermal Gravimetric Analyser (TGA) (TA Instruments) using the following parameters:
Heating rate (normally): 5° C./min
Approximately 2 to 5 mg of the test sample was placed in the cup and heated to just above 200° C.

[5] = Solid-state storage stability (chemical and physical); assay type: physicochemical; conditions: 25° C./desiccated; 25° C./60% RH; 40° C./75% RH; examined after 2, 4, 8 and 12 weeks
Experimental: The solid-state stability of compound (I) Form G was studied under three sets of conditions: at 25° C./desiccated; at 25° C./60% RH; and at 40° C./75% RH. Samples were examined after 2, 4, 8 and 12 weeks and chemical and physical stability was evaluated.

Sequence of MMP12 (P39900 106-470): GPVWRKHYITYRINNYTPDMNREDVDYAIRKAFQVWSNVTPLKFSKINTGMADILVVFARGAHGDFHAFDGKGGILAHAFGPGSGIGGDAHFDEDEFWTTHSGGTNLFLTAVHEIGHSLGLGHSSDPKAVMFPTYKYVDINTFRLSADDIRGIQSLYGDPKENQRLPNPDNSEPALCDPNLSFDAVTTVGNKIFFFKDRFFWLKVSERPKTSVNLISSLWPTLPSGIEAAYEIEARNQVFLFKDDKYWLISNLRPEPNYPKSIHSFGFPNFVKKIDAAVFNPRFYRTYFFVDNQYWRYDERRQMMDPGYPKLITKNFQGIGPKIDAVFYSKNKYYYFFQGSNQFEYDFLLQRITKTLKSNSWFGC

Compound: C[C@]1(CS(=O)(=O)N2CCC(Oc3ccc(Cl)cn3)CC2)NC(=O)NC1=O [Compound (I), (5S)-5-[4-(5-chloro-pyridin-2-yloxy)-piperidine-1-sulfonylmethyl]-5-methyl-imidazolidine-2,4-dione]
MMP12 inhibition (in words) [1]: potent inhibitor of MMP12

conversion of crystal form in suspension (XRPD) ([2]; suspensions in organic solvents (ethanol, methanol, 1-propanol, 2-propanol, acetone or ethyl acetate)): complete conversion into Form G
Compound: C[C@]1(CS(=O)(=O)N2CCC(Oc3ccc(Cl)cn3)CC2)NC(=O)NC1=O [Form A, (5S)-5-[4-(5-chloro-pyridin-2-yloxy)-piperidine-1-sulfonylmethyl]-5-methyl-imidazolidine-2,4-dione]

relative thermodynamic stability among the seven crystalline modifications ([2]; temperature range investigated (5 to 40° C.)): thermodynamically most stable
humidity uptake ([3]; at 80% RH, GVS): < 0.05%
hygroscopicity classification ([3]; criteria defined in the European Pharmacopoeia): non-hygroscopic
thermal stability (DSC and TGA traces) [4]: thermally stable
solid-state chemical and physical stability [5]: chemically and physically stable
Compound: C[C@]1(CS(=O)(=O)N2CCC(Oc3ccc(Cl)cn3)CC2)NC(=O)NC1=O [compound (I) Form G, (S)-5-[4-(5-Chloro-pyridin-2-yloxy)-piperidine-1-sulfonylmethyl]-5-methyl-imidazolidine-2,4-dione Form G]

Reference: US20090221640A1, “Novel Crystal Modifications” (ASTRAZENECA AB, priority 2006, published 2009)
